What was measured:
hPSCs [1] = assay: Flow cytometry of stage-specific progenitors in GiWi protocol; type: cell-based, human; conditions: after 24 hours of treatment
Procedure: Differentiation of hPSCs to cardiomyocytes using GiWi protocol: Human PSCs were dissociated with 1 ml/well Versene solution at 37° C. for 5 minutes, and seeded on Matrigel™ coated 6-well plates at the density of 1.5×10^6 cells/well in mTeSR1 medium supplemented with 10 μM ROCK inhibitor (Y-27632) (Tocris). Cells were cultured for 5-6 days in mTeSR1 medium until the cells reached 100% confluence when differentiation started (day 0). At day 0, the medium was changed to 2.5 ml RPMI+B27 without insulin (Invitrogen) and supplemented with 12 μM CHIR99021 (Tocris) and cells were treated in this medium for 24 hrs (day 1). At day 1, medium was changed to 3 ml RPMI+B27 without insulin and cells were cultured in this medium for 48 hrs (day 3). […]
Flow Cytometry: Cells were detached from cell culture plates by incubation with 0.25% trypsin-EDTA (Invitrogen) plus 2% chick serum (Sigma) for 5 minutes at 37° C. […] Cells were counted and 0.5-1 million cells were used as the sample size for labeling. […] Data were collected on a FACSCalibur™ flow cytometer (Beckton Dickinson) and analyzed using FlowJo™ software.
Biphasic modulation of the Wnt signaling pathway with small molecules is sufficient to direct the differentiation of monolayer cultured hPSCs to cardiomyocytes^21. […] We first determined the stage-specific mesodermal and cardiac progenitor populations generated by this small molecule (GiWi) protocol^22. […]

hPSCs [2] = assay: Quantitative RT-PCR time course of GiFGF protocol; type: cell-based, human; conditions: qRT-PCR, peaking at day 1
Procedure: Differentiation of hPSCs to cardiac fibroblasts: Human PSCs were dissociated with 1 ml/well Versene solution (Invitrogen) at 37° C. for 5 minutes, and seeded on Matrigel™ (GFR, BD Biosciences) coated 6-well plates at the density of 1.5×10^6 cells/well in mTeSR1 medium supplemented with 10 μM ROCK inhibitor (Y-27632) (Tocris). Cells were cultured for 5-6 days in mTeSR1 medium with medium change daily until the cells reached 100% confluence when differentiation started (day 0). At day 0, the medium was changed to 2.5 ml RPMI+B27 without insulin (Invitrogen) and supplemented with 12 μM CHIR99021 (Tocris) and cells were treated in this medium for 24 hrs (day 1). At day 1, medium was changed to 3 ml RPMI+B27 without insulin and cells were cultured in this medium for another day (day 2). At day 2, the medium was changed to 2.5 ml of the defined fibroblast culture medium (Table 1) supplemented with bFGF (WiCell). Methods using L-glutamine in place of GlutaMAX were also successful. […]
RT-PCR and quantitative RT-PCR: Cell samples were collected using 0.25% trypsin-EDTA (Invitrogen) to remove the cells from cell culture plates. […] Quantitative RT-PCR (Q-PCR) was performed using Taqman PCR Master Mix and Gene Expression Assays (Applied Biosystems) in triplicate for each sample and each gene. […]

[3] = system: hPSC-derived cardiac mesodermal progenitors; assay: Cardiac fibroblast differentiation induced by bFGF at stage-specific progenitors, flow cytometry at 20 days; type: cell-based
Procedure: Differentiation of hPSCs to cardiac fibroblasts: Human PSCs were dissociated with 1 ml/well Versene solution (Invitrogen) at 37° C. for 5 minutes, and seeded on Matrigel™ (GFR, BD Biosciences) coated 6-well plates at the density of 1.5×10^6 cells/well in mTeSR1 medium supplemented with 10 μM ROCK inhibitor (Y-27632) (Tocris). Cells were cultured for 5-6 days in mTeSR1 medium with medium change daily until the cells reached 100% confluence when differentiation started (day 0). At day 0, the medium was changed to 2.5 ml RPMI+B27 without insulin (Invitrogen) and supplemented with 12 μM CHIR99021 (Tocris) and cells were treated in this medium for 24 hrs (day 1). At day 1, medium was changed to 3 ml RPMI+B27 without insulin and cells were cultured in this medium for another day (day 2). At day 2, the medium was changed to 2.5 ml of the defined fibroblast culture medium (Table 1) supplemented with bFGF (WiCell). Methods using L-glutamine in place of GlutaMAX were also successful. Cells were fed every other day and cultured until day 20 for flow cytometry analysis and subculture of cardiac fibroblasts.
Flow Cytometry: Cells were detached from cell culture plates by incubation with 0.25% trypsin-EDTA (Invitrogen) plus 2% chick serum (Sigma) for 5 minutes at 37° C. Cells were vortexed to disrupt the aggregates followed by neutralization by adding equal volume of EB20 medium (Zhang et al., Circ Res. 2009). Cells were counted and 0.5-1 million cells were used as the sample size for labeling. Cells were fixed in 1% paraformaldehyde in a 37° C. water bath for 10 minutes in the dark. For labeling intracellular markers, cells were permeabilized in ice-cold 90% methanol for 30 minutes on ice. Cells were washed once in FACS buffer (PBS without Ca/Mg2^+, 0.5% BSA, 0.1% NaN3), centrifuged and resuspended in about 50 μl FACS buffer with (for intracellular markers) or without 0.1% Triton X-100. For labeling surface markers, appropriate amounts of the conjugated antibodies were added according to the manufacturer's instruction to the cells in FACS buffer to make the final volume of 100 μl with FACS buffer, and incubated in the dark for 30 minutes at room temperature. Cells were washed once with 3 ml FACS buffer and resuspended in 300-500 μl FACS buffer for analysis. […] Data were collected on a FACSCalibur™ flow cytometer (Beckton Dickinson) and analyzed using FlowJo™ software.
Our goal was to bias the differentiation to generate cardiac fibroblasts rather than cardiomyocytes. […] Following 20 days of differentiation, cells were analyzed by flow cytometry using a specific fibroblast antibody (mouse anti-human fibroblast, clone TE-7) and an antibody to sarcomeric myosin (MF20) expressed in cardiomyocytes. […]

| Compound | Brachyury expression (hPSCs [1]) | early mesodermal gene T expression (hPSCs [2]) | bFGF concentration at which fibroblast marker positive cells peaked ([3]; added on day 2 of differentiation) | fibroblast marker positive cells (clone TE-7) ([3]; bFGF 0-125 ng/ml in CFBM, 20 days of differentiation, flow cytometry) | cell death ([3]; higher concentration of bFGF added on day 3 or day 4, after day 6 of differentiation) | generation of MF20+ cardiomyocytes ([3]; medium change and bFGF added on day 2 or day 3) |
| --- | --- | --- | --- | --- | --- | --- |
| Cc1c[nH]c(-c2cnc(NCCNc3ccc(C#N)cn3)nc2-c2ccc(Cl)cc2Cl)n1 [CHIR, CHIR99021] | expressed in almost all cells | transiently up-regulated |  |  |  |  |
| bFGF: fibroblast growth factor (WiCell) added to the defined fibroblast medium |  |  | 75 ng/mL | concentration-dependent increase | significant cell death | effectively prevented |

From patent publication US11072780B2, “Method of differentiating human pluripotent cells into cardiac fibroblasts” (Wisconsin Alumni Research Foundation, priority 2016, dated 2021)
